The assay has as its target T1, human PTHR1 receptor (Homo sapiens, UniProt Q03431).
T1 construct: purchased Eurofins HTS030M
T1 sequence (Q03431 27-593): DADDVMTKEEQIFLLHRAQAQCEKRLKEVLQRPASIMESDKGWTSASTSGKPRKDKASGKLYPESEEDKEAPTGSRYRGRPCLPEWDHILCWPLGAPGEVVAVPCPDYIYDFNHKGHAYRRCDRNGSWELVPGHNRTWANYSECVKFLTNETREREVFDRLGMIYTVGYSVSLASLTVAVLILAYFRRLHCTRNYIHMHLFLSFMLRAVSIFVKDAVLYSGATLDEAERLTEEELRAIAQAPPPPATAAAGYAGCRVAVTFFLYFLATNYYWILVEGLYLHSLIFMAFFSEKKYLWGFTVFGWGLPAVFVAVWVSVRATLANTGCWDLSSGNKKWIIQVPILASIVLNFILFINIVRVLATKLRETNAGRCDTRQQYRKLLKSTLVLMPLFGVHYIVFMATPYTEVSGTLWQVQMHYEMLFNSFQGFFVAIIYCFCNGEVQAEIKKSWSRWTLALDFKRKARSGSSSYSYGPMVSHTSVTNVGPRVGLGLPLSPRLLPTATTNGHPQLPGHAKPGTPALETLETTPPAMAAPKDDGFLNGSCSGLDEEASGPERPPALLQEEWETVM
Briefly: Competitive antagonist binding assay for hPTH-R1 (radioactive competition binding, SPA beads). To be noted: human PTHR1 membranes, [125I]-[Nle8,18,Tyr34]-PTH(1-34) 0.2 nM, 90 minutes at room temperature; read-out: hPTHR1 Ki. The essentials: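 Displacement of 0.2 nM radioiodinated [Nle8,18,Tyr34]-PTH(1-34) from membrane-bound human PTHR1 measured by scintillation proximity after 90 min at room temperature. Compounds typically 0-10,000 nM final, pH 7.4 HEPES/Mg/Ca buffer with BSA and detergent. Ki calculated from competition data.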
Turning to `CCN1C(=O)N(c2c(F)cc(NCCNCCO)cc2F)c2cc(Cl)cc(F)c2-c2cc(F)cnc21` [1-95, 13-chloro-10-[2,6-difluoro-4-({2-[(2-hydroxyethyl)amino]ethyl}amino)phenyl]-8-ethyl-4,15-difluoro-6,8,10-triazatricyclo[9.4.0.0^2,7]pentadeca-1(11),2(7),3,5,12,14-hexaen-9-one], the Ki (in general, the equilibrium dissociation constant of an inhibitor or competing ligand from its target) is less than 0.1 µM. The result for `CCN1C(=O)N(c2c(F)cc(NCCNCCCC(=O)O)cc2F)c2cc(Cl)cc(F)c2-c2cc(F)cnc21` [1-96, 4-({2-[(4-{13-chloro-8-ethyl-4,15-difluoro-9-oxo-6,8,10-triazatricyclo[9.4.0.0^2,7]pentadeca-1(11),2(7),3,5,12,14-hexaen-10-yl}-3,5-difluorophenyl)amino]ethyl}amino)butanoic acid] reads less than 0.1 µM.

On to `CCN1C(=O)N(c2c(F)cc(NCCNC)cc2F)c2cc(C#N)ccc2-c2cc(C(F)(F)F)cnc21` [1-97, 10-(2,6-difluoro-4-{[2-(methylamino)ethyl]amino}phenyl)-8-ethyl-9-oxo-4-(trifluoromethyl)-6,8,10-triazatricyclo[9.4.0.0^2,7]pentadeca-1(11),2(7),3,5,12,14-hexaene-13-carbonitrile], for which the Ki was less than 0.1 µM. The result for `CCN1C(=O)N(c2c(F)cc(NCCNCCO)cc2F)c2cc(C#N)ccc2-c2cc(C(F)(F)F)cnc21` [1-98, 10-[2,6-difluoro-4-({2-[(2-hydroxyethyl)amino]ethyl}amino)phenyl]-8-ethyl-9-oxo-4-(trifluoromethyl)-6,8,10-triazatricyclo[9.4.0.0^2,7]pentadeca-1(11),2(7),3,5,12,14-hexaene-13-carbonitrile] reads less than 0.1 µM; that for `CCN1C(=O)N(c2c(F)cc(NCCNC)cc2F)c2cc(C#N)cc(F)c2-c2cc(Cl)cnc21` [1-99, 4-chloro-10-(2,6-difluoro-4-{[2-(methylamino)ethyl]amino}phenyl)-8-ethyl-15-fluoro-9-oxo-6,8,10-triazatricyclo[9.4.0.0^2,7]pentadeca-1(11),2(7),3,5,12,14-hexaene-13-carbonitrile], less than 0.1 µM; that for `CCN1C(=O)N(c2c(F)cc(NCCNCCO)cc2F)c2cc(C#N)cc(F)c2-c2cc(Cl)cnc21` [1-100, 4-chloro-10-[2,6-difluoro-4-({2-[(2-hydroxyethyl)amino]ethyl}amino)phenyl]-8-ethyl-15-fluoro-9-oxo-6,8,10-triazatricyclo[9.4.0.0^2,7]pentadeca-1(11),2(7),3,5,12,14-hexaene-13-carbonitrile], less than 0.1 µM. The same measure for `CCN1C(=O)N(c2c(F)cc(NCCNCCCC(=O)O)cc2F)c2cc(C#N)cc(F)c2-c2cc(Cl)cnc21` [1-101, 4-({2-[(4-{4-chloro-13-cyano-8-ethyl-15-fluoro-9-oxo-6,8,10-triazatricyclo[9.4.0.0^2,7]pentadeca-1(11),2(7),3,5,12,14-hexaen-10-yl}-3,5-difluorophenyl)amino]ethyl}amino)butanoic acid]: less than 0.1 µM; for `CCN1C(=O)N(c2c(F)cc(NCCNC)cc2F)c2cc(C#N)cc(F)c2-c2cc(F)cnc21` [1-102, 10-(2,6-difluoro-4-{[2-(methylamino)ethyl]amino}phenyl)-8-ethyl-4,15-difluoro-9-oxo-6,8,10-triazatricyclo[9.4.0.0^2,7]pentadeca-1(11),2(7),3,5,12,14-hexaene-13-carbonitrile]: less than 0.1 µM.

With `CCN1C(=O)N(c2c(F)cc(NCCNCCO)cc2F)c2cc(C#N)cc(F)c2-c2cc(F)cnc21` [1-103, 10-[2,6-difluoro-4-({2-[(2-hydroxyethyl)amino]ethyl}amino)phenyl]-8-ethyl-4,15-difluoro-9-oxo-6,8,10-triazatricyclo[9.4.0.0^2,7]pentadeca-1(11),2(7),3,5,12,14-hexaene-13-carbonitrile], the inhibitory constant (Ki) was less than 0.1 µM. The same measure for `CCN1C(=O)N(c2c(F)cc(NCCNCCCC(=O)O)cc2F)c2cc(C#N)cc(F)c2-c2cc(F)cnc21` [1-104, 4-({2-[(4-{13-cyano-8-ethyl-4,15-difluoro-9-oxo-6,8,10-triazatricyclo[9.4.0.0^2,7]pentadeca-1(11),2(7),3,5,12,14-hexaen-10-yl}-3,5-difluorophenyl)amino]ethyl}amino)butanoic acid]: less than 0.1 µM; for `CNCCNc1cc(F)c(N2C(=O)N(C(C)C)c3ncc(F)cc3-c3ccc(Cl)cc32)c(F)c1` [1-105, 13-chloro-10-(2,6-difluoro-4-{[2-(methylamino)ethyl]amino}phenyl)-4-fluoro-8-(propan-2-yl)-6,8,10-triazatricyclo[9.4.0.0^2,7]pentadeca-1(11),2(7),3,5,12,14-hexaen-9-one]: less than 0.1 µM; for `CC(C)N1C(=O)N(c2c(F)cc(NCCNCCO)cc2F)c2cc(Cl)ccc2-c2cc(F)cnc21` [1-106, 13-chloro-10-[2,6-difluoro-4-({2-[(2-hydroxyethyl)amino]ethyl}amino)phenyl]-4-fluoro-8-(propan-2-yl)-6,8,10-triazatricyclo[9.4.0.0^2,7]pentadeca-1(11),2(7),3,5,12,14-hexaen-9-one]: less than 0.1 µM. The result for `CNCCNc1cc(F)c(N2C(=O)N(C(C)C)c3ncc(F)cc3-c3c(F)cc(C#N)cc32)c(F)c1` [1-107, 10-(2,6-difluoro-4-{[2-(methylamino)ethyl]amino}phenyl)-4,15-difluoro-9-oxo-8-(propan-2-yl)-6,8,10-triazatricyclo[9.4.0.0^2,7]pentadeca-1(11),2(7),3,5,12,14-hexaene-13-carbonitrile] reads less than 0.1 µM. The result for `CC(C)N1C(=O)N(c2c(F)cc(NCCNCCO)cc2F)c2cc(C#N)cc(F)c2-c2cc(F)cnc21` [1-108, 10-[2,6-difluoro-4-({2-[(2-hydroxyethyl)amino]ethyl}amino)phenyl]-4,15-difluoro-9-oxo-8-(propan-2-yl)-6,8,10-triazatricyclo[9.4.0.0^2,7]pentadeca-1(11),2(7),3,5,12,14-hexaene-13-carbonitrile] reads less than 0.1 µM. On to `CNCCNc1cc(F)c(N2C(=O)N(C)c3ncc(F)cc3-c3c(F)cc(C#N)cc32)c(F)c1` [1-109, 10-(2,6-difluoro-4-{[2-(methylamino)ethyl]amino}phenyl)-4,15-difluoro-8-methyl-9-oxo-6,8,10-triazatricyclo[9.4.0.0^2,7]pentadeca-1(11),2(7),3,5,12,14-hexaene-13-carbonitrile], for which the inhibitory constant (Ki) was less than 0.1 µM. The result for `CN1C(=O)N(c2c(F)cc(NCCNCCO)cc2F)c2cc(C#N)cc(F)c2-c2cc(F)cnc21` [1-110, 10-[2,6-difluoro-4-({2-[(2-hydroxyethyl)amino]ethyl}amino)phenyl]-4,15-difluoro-8-methyl-9-oxo-6,8,10-triazatricyclo[9.4.0.0^2,7]pentadeca-1(11),2(7),3,5,12,14-hexaene-13-carbonitrile] reads less than 0.1 µM; that for `CNCCNc1cc(F)c(N2C(=O)N(C)c3ncc(F)cc3-c3c(C)cc(C#N)cc32)c(F)c1` [1-111, 10-(2,6-difluoro-4-{[2-(methylamino)ethyl]amino}phenyl)-4-fluoro-8,15-dimethyl-9-oxo-6,8,10-triazatricyclo[9.4.0.0^2,7]pentadeca-1(11),2(7),3,5,12,14-hexaene-13-carbonitrile], less than 0.1 µM. For the molecule `Cc1cc(C#N)cc2c1-c1cc(F)cnc1N(C)C(=O)N2c1c(F)cc(NCCNCCO)cc1F` [1-112, 10-[2,6-difluoro-4-({2-[(2-hydroxyethyl)amino]ethyl}amino)phenyl]-4-fluoro-8,15-dimethyl-9-oxo-6,8,10-triazatricyclo[9.4.0.0^2,7]pentadeca-1(11),2(7),3,5,12,14-hexaene-13-carbonitrile], the inhibition constant (Ki) is less than 0.1 µM.

Consider `CNCCNc1cc(F)c(N2C(=O)N(C(C)C)c3ncc(F)cc3-c3c(F)cc(Cl)cc32)c(F)c1` [1-113, 13-chloro-10-(2,6-difluoro-4-{[2-(methylamino)ethyl]amino}phenyl)-4,15-difluoro-8-(propan-2-yl)-6,8,10-triazatricyclo[9.4.0.0^2,7]pentadeca-1(11),2(7),3,5,12,14-hexaen-9-one], for which the inhibition constant Ki is less than 0.1 µM. Consider `CC(C)N1C(=O)N(c2c(F)cc(NCCNCCO)cc2F)c2cc(Cl)cc(F)c2-c2cc(F)cnc21` [1-114, 13-chloro-10-[2,6-difluoro-4-({2-[(2-hydroxyethyl)amino]ethyl}amino)phenyl]-4,15-difluoro-8-(propan-2-yl)-6,8,10-triazatricyclo[9.4.0.0^2,7]pentadeca-1(11),2(7),3,5,12,14-hexaen-9-one], for which the Ki was less than 0.1 µM. The result for `CNCCNc1cc(F)c(N2C(=O)N(C)c3ncc(Cl)cc3-c3c(F)cc(C#N)cc32)c(F)c1` [1-115, 4-chloro-10-(2,6-difluoro-4-{[2-(methylamino)ethyl]amino}phenyl)-15-fluoro-8-methyl-9-oxo-6,8,10-triazatricyclo[9.4.0.0^2,7]pentadeca-1(11),2(7),3,5,12,14-hexaene-13-carbonitrile] reads less than 0.1 µM.

For the origin of these results see patent US20230159532A1, “PARATHYROID HORMONE (PTH) RECEPTOR ANTAGONISTS AND USES THEREOF” (Crinetics Pharmaceuticals, Inc., priority 2021, published 2023).
